Measured values: patent publication US20160320368A1, “METHOD AND APPARATUS FOR PREDICTING EFFECTIVE DOSE OR SENSITIVITY OF 5-HYDROXY-1H-IMIDAZOLE-4-CARBOXAMIDE, METHOD FOR DETERMINING AMOUNT OF XANTHOSINE MONOPHOSPHATE, AND TREATMENT AGENT AND METHOD FOR TREATING MYELODYSPLASTIC SYNDROME” (FUJIFILM Corporation, priority 2014, published 2016)
Where two headings read alike, the source gives them in different places.

Columns and labels:
[1] = system: XMP in blood cells after hemolysis; assay: XMP in blood cells after hemolysis (Example 5); format: cell-based; settings: Homo sapiens, 37° C., 8 hours, non-treated = 100%; for XMP amount (% of non-treated) at 1 µg/mL: Compound A 1 μg/mL; for XMP amount (% of non-treated) at 3 µg/mL: Compound A 3 μg/mL; for XMP amount (% of non-treated) at 10 µg/mL: Compound A 10 μg/mL; for XMP amount (% of non-treated) at 30 µg/mL: Compound A 30 μg/mL; for XMP amount (% of non-treated) at 100 µg/mL: Compound A 100 μg/mL
Protocol: A ¾ hydrate of Compound A was used s a test compound.
450 μL of the blood collected from two healthy individuals by heparinized blood collection (Analyte A and Analyte B) was added to each tube, and 50 μL of a PBS solution of the test compound (0 μg/mL, 10 μg/mL, 30 μg/mL, 100 μg/mL, 300 μg/mL, or 1000 μg/mL in terms of Compound A) for each concentration was added to each tube. The reaction mixture was stirred in an incubator at 37° C. for 8 hours.
BD Pharm Lyse (555899, manufactured by Becton, Dickinson and Company, Inc.) was added to the blood sample obtained in (1) (2 mL of BD Pharm Lyse was added relative to 0.2 mL of blood). After stirring with a vortex mixer, the reaction solution was protected from light and allowed to stand at room temperature for 15 min. After centrifugation at 20° C. and 1000×g for 5 min, the supernatant was removed and suspended in 10 mL of PBS. After centrifugation at 4° C. and 1000×g for 5 min, the supernatant was removed, and 1000 μL of methanol was added to each tube, followed by stirring. Thereafter, 500 μL of ultrapure water was added thereto, followed by further stirring. 600 μL of the reaction solution was divided into each of two tubes, and 400 μL of chloroform was added to each tube. The reaction solution was stirred and then centrifuged at 4° C. and 10000×g for 15 min. 400 μL of the aqueous phase was recovered and added to an ultrafiltration tube (UltrafreeMC-PLHCC 250/pk for Metabolome Analysis (manufactured by Human Metabolome Technologies)), followed by centrifugation at 12° C. and 9200×g for 2 hours. The filtrates were combined and then dried under reduced pressure at 40° C. for 2 hours by using a centrifugal evaporator. After drying, the resulting product was stored in a freezer at −80° C.
(§1) The samples obtained in (2-1) and (2-2) were returned to room temperature and 40 μL of ultrapure water was added to each sample. The mixture was stirred and centrifuged at 4° C. and 21500×g for 5 min. 35 μL of the supernatant was transferred to a vial. After storage at 4° C., XMP in samples was determined in the LC-MS/MS determination instrument, LC conditions and MS/MS conditions described in Example 3 (3).
Amounts of XMP (%) were calculated assuming that amounts of XMP in a non-Compound A treated group are defined as 100%.

[2] = system: XMP in human myeloid leukemia cells K562; assay: XMP in human myeloid leukemia cells K562 (LC-MS/MS); format: cell-based; settings: 24 hours, non-treated = 100%
Protocol: A ¾ hydrate of Compound A was used as a test compound.
K562 (available from Riken BioResource Center) was used as a human myeloid leukemia cell.
2×10^7 human myeloid leukemia cells were suspended in a culture flask containing 18 mL of an RPMI1640 medium (manufactured by Life Technologies, Inc.). 2 mL of a PBS solution of the test compound (0 μg/mL, 10 μg/mL, 100 μg/mL, or 1000 μg/mL in terms of Compound A) was added to the flask which was then incubated at 37° C. under 5% CO2 for 24 hours. After centrifugation at 20° C. and 300×g for 3 min, the supernatant was removed and suspended in 10 mL of a PBS solution. Then, after centrifugation at 4° C. and 300×g for 5 min, the supernatant was removed. After stirring with addition of 1000 μL of methanol, 500 μL of ultrapure water was added thereto, followed by further stirring. 600 μL of the reaction solution was divided into each of two tubes, and 400 μL of chloroform was added to each tube. The reaction solution was stirred and then centrifuged at 4° C. and 10000×g for 15 min. 400 μL of the aqueous phase was recovered and added to an ultrafiltration tube, followed by centrifugation at 12° C. and 9200×g for 2 hours. The filtrates were combined and then dried under reduced pressure at 40° C. for 2 hours by using a centrifugal evaporator. After drying, the resulting product was stored in a freezer at −80° C.
as §1, with “stored” for “obtained”, “(1)” for “(2-1)”, “(2)” for “(2-2)”
Amounts of XMP (%) were calculated assuming that the XMP value of a non-Compound A treated group (peak area value) is defined as 100%.

[3] = read-out: Amount of XMP (%) Analyte A Hemolysis
[4] = read-out: Amount of XMP (%) Analyte B Hemolysis

## NC(=O)c1nc[nH]c1O [Compound A, 5-Hydroxy-1H-imidazole-4-carboxamide]
[1]; [3]
  XMP amount (% of non-treated) at 1 µg/mL: 60%
  XMP amount (% of non-treated) at 3 µg/mL: 45%
  XMP amount (% of non-treated) at 10 µg/mL: 37%
  XMP amount (% of non-treated) at 30 µg/mL: 27%
  XMP amount (% of non-treated) at 100 µg/mL: 16%
[1]; [4]
  XMP amount (% of non-treated) at 1 µg/mL: 51%
  XMP amount (% of non-treated) at 3 µg/mL: 37%
  XMP amount (% of non-treated) at 10 µg/mL: 25%
  XMP amount (% of non-treated) at 30 µg/mL: 18%
  XMP amount (% of non-treated) at 100 µg/mL: 10%
[2]; Compound A 1 μg/mL
  Amount of XMP (%) K562: 52%
[2]; Compound A 10 μg/mL
  Amount of XMP (%) K562: 15%
[2]; Compound A 100 μg/mL
  Amount of XMP (%) K562: 6%
